# Results published in PMC3246456, “An Immunoassay for Dibutyl Phthalate Based on Direct Hapten Linkage to the Polystyrene Surface of Microtiter Plates” (PLoS ONE, 2011).
# How the values were obtained:
# [1] = system: anti-DBP MAb; assay: Hapten coated icELISA (DBAP directly linked to polystyrene); format: binding, mouse; settings: for CR (cross-reactivity): CR (%) = IC50 DBP/IC50 analogue×100; for inhibition: at 10 mg/mL; for antibody recognition: specificity of MAb
# Description: (§1) An icELISA was used to assess the sensitivity of the MAb to free DBP and the cross-reactivities of structurally related compounds to the antibody. For competition, 50 µL of standards or diluted samples in assay buffer were placed in the wells, and 50 µL of the anti-DBP MAb diluted with assay buffer was added. After incubated for 1.5 h at 25°C, the plate was washed. The following procedure was followed as described for the inELISA. […] Standards and samples were run in triplicate wells, and the mean absorbance values were processed. Standard curves were obtained by plotting absorbance against the logarithm of analyte concentration and fitted with a logistic four-parameter equation y = (A−D)/[1+(x/C)^B]+D, where A is the absorbance value with no analyte present, B is the slope near the midpoint inhibition concentration, C is the concentration of analyte giving 50% inhibition (IC50), and D is the minimum absorbance value at infinite concentration of the analyte, [21]. Dynamic range was established between the concentrations producing 20% and 80% inhibition (IC20–IC80 or 80%–20% of the maximum response). Limit of detection (LOD) was determined as the concentration corresponding to 10% inhibitory concentration (IC10 or 90% of the maximum response) [22]–[24].
# Polystyrene surface was first carboxylated by permanganate oxidation. Microwells were filled with a solution of 5% KMnO4 in 0.6 mol/L H2SO4 (150 µL/well) for 60 min at 60°C. The plates were washed with 6 mol/L HCl (3×5 min, 200 µL/well) to remove the brown manganese oxide and rinsed three times with distilled water giving polystyrene-COOH microwells [25]. Then 150 µL of EDC and hapten DBAP in 0.1 mol/L MES buffer (pH 5.0) were placed in the wells and incubated overnight under shaking (Fig. 2). The subsequent procedures were the same as conjugate coated inELISA or icELISA under optimal condition. The essential steps in direct attachment of hapten DBAP to polystyrene surface such as concentrations of EDC and conjugation temperatures were determined by the amount of antibody on the modified polystyrene surface measured by inELISA with coating concentration of 2 µg/mL DBAP and MAb dilution of 1∶2000. The optimal coating concentration of DBAP and dilution of MAb were determined by checkerboard titration.
# To determine the specificity of MAb produced, the ability of the MAb to recognize several structurally related compounds (analogues) was tested by performing hapten coated icELISA and determining their respective IC50 values. The cross-reactivity (CR) values were calculated according to the following equation CR (%) = IC50 DBP/IC50 analogue×100 [23], [26].
# [2] = system: MAb; assay: Binding of MAb to hapten linked on polystyrene surface; design: species or system mouse; settings: carboxylated hapten linked to polystyrene surface; absorbance at 492 nm too low
# Description: Although methods had already been reported for linking hapten to polystyrene surface, [11], it was not applicable to the hapten coated ELISA for DBP because the MAb produced hardly bound to the carboxylated hapten DBCP on polystyrene (The absorbance value at 492 nm was too low.). Thus it was needed to immobilize the aminated hapten DBAP to the surface of polystyrene. Holthues et al had linked an aminated hapten ABA–atrazine to a glutaraldehyde polymer network directly bound to polystyrene surface and developed very sensitive ELISA to detect terbutryn. However, it was a failure to establish hapten coated ELISA for DBP based on covalently linking DBAP to a glutaraldehyde polymer network on polystyrene surface. […] The hapten coated format presented is proposed as generally applicable, because the carboxyl on modified microtiter plate surface enables stable immobilization of aminated or hydroxylated hapten through EDC.
# [3] = system: anti-DBP MAb; assay: Conjugate coated indirect competitive ELISA (icELISA), DBAP-BSA coated; format: binding, mouse
# Description: Checkerboard titration, in which purified MAb was titrated against varying amounts of the coating hapten-conjugate was used to measure the reactivity of antibodies and to select an appropriate coating concentrations and antibody dilutions for icELISA [19]. The checkerboard assays were performed with inELISA. Microtiter plates were coated with 100 µL/well of hapten-protein conjugates (0, 0.125, 0.25, 0.5, and 1 µg/mL) in 0.05 mol/L carbonate buffer (pH 9.6) and incubated overnight at 4°C. The plates were washed three times with PBST (0.01 mol/L PBS containing 0.05% Tween-20, pH 7.4, 200 µL/well) and were blocked with 3% (w/v) skim milk powder (SMP) in PBS (250 µL/well) for 1 h at 37°C. After another washing step, 100 µL/well of purified anti-DBP MAb (1∶1000, 1∶2000, 1∶4000, 1∶8000, 1∶16000, and 1∶32000) diluted in PBS containing 0.1% BSA was added. After incubation for 1.5 h at 25°C, the plates were washed. Subsequently, the plates were incubated for 1 h at 37°C with 10000-fold diluted HRP-anti-mIgG in PBS containing 0.1% BSA (100 µL/well). After another washing step, 100 µL/well of freshly prepared O-phenylenediamine (OPD) solution (0.4 mg/mL OPD and 0.012% H2O2 in 0.05 mol/L citrate-phosphate, pH 5.0) was added. The reaction was stopped with 2 mol/L sulfuric acid (50 µL/well) after an incubation of 15 min at room temperature keeping away from light. The absorbance was recorded at a primary wavelength of 492 nm with a reference wavelength of 630 nm.
# as §1
# The influence of several experimental parameters on assay characteristics was examined in order to improve the sensitivity of the immunoassay. Concentrations of coating antigen and dilutions of MAb were determined by checkerboard titration. Other different experimental parameters such as organic solvents, pH, ionic strength, and detergent in assay buffer, and blocking agents were studied sequentially in this order using the above described icELISA protocol. Each time an evaluated parameter was changed, the new value was used for the evaluation of the next condition. Criteria used to evaluate the assay performances were the absorbance of zero concentration of DBP (Amax) and IC50.
# [4] = system: antibodies in hybridoma culture supernatants; assay: Hybridoma screening by icELISA with 1 µg/mL DBAP-BSA; format: binding, mouse; settings: three competitive clones of 352 wells; coated antigen 1 µg/mL DBAP-BSA
# Description: SP 2/0 murine myeloma cells were cultured in DMEM supplemented with 15% fetal bovine serum and 1% penicillin–streptomycin. Cell fusion and hybridoma culture procedures were carried out essentially as described by James. Mice splenocytes were mixed with SP 2/0 cells at the ratio of 5∶1 and centrifuged at 450 g for 5 min. One milliliters of polyethylene glycol solution at 37°C was dropped to the cell pellet over 1 min. The cell pellet was rotated for further 1 min, then 1 mL of DMEM added over 1 min, 2 mL of DMEM over 2 min. Finally, 12 mL was added over 2 min. After centrifugation at 450 g for 5 min, the cells were pelleted again, resuspended in HAT medium (DMEM containing 15% fetal bovine serum, 1% penicillin–streptomycin and 2% HAT media supplement) and plated into 96-well plates in which normal mouse peritoneal exudate cells (as feeder cells) had already been cultured 1 day before fusion. The colonies were fed every fifth day with freshly prepared HAT medium. […] The ratio of both absorbances was used as the criterion for selecting the best antibody-secreting clones. […]
# An icELISA was used to assess the sensitivity of the MAb to free DBP and the cross-reactivities of structurally related compounds to the antibody. […] Standards and samples were run in triplicate wells, and the mean absorbance values were processed. […]
# [5] = system: polyclonal antibody; design: method as in PMID 16947007; settings: cited from earlier work
# [6] = cross-reactivity study, hapten coated icELISA, mean ±SD of three replicates
# [7] = conjugate coated icELISA, optimized conditions
# [8] = hapten coated icELISA, optimized conditions
compound,measurement,setting,value
"CCCCOC(=O)c1ccccc1C(=O)OCc1ccccc1 [BBP, Butyl benzyl phthalate]",IC50,[1]; [6],0.0721 ± 0.0142 µg/mL
"CCCCOC(=O)c1ccc(N)cc1C(=O)OCCCC [DBAP, dibutyl 4-aminophthalate]",CR (cross-reactivity),[1]; hapten coated icELISA,27.8%
same,IC50,[1]; [6],0.0529 ± 0.0124 µg/mL
CCCCOC(=O)c1ccc(NC(=O)CCC(=O)O)cc1C(=O)OCCCC [DBCP],binding of MAb to hapten on polystyrene,[2],hardly bound
"CCCCOC(=O)c1ccccc1C(=O)OCCCC [DBP, Dibutyl phthalate]",IC50 (blocking agent optimization),[3]; OVA as a blocking reagent (Fig. 4D),0.10813 ± 0.01952 µg/mL
same,"IC50 (lowest, pH optimization)",[3]; assay buffer pH 6.8 (Fig. 4A),177.04±15.37 ng/mL
same,IC50,"[3]; assay buffer with 0% DMF (DMF series) in PBS containing 0.1% BSA, mean ±SD, three replicates",0.369 ± 0.0274 µg/mL
same,IC50,"[3]; assay buffer with 0% DMSO (DMSO series) in PBS containing 0.1% BSA, mean ±SD, three replicates",0.392 ± 0.0702 µg/mL
same,IC50,"[3]; assay buffer with 0% acetonitrile (acetonitrile series) in PBS containing 0.1% BSA, mean ±SD, three replicates",0.471 ± 0.0306 µg/mL
same,IC50,"[3]; assay buffer with 0% dioxane (dioxane series) in PBS containing 0.1% BSA, mean ±SD, three replicates",0.797 ± 0.0198 µg/mL
same,IC50,"[3]; assay buffer with 0% methanol (methanol series) in PBS containing 0.1% BSA, mean ±SD, three replicates",1.4 ± 0.0643 µg/mL
same,IC50,"[3]; assay buffer with 5% DMF in PBS containing 0.1% BSA, mean ±SD, three replicates",0.303 ± 0.0302 µg/mL
same,IC50,"[3]; assay buffer with 5% DMSO in PBS containing 0.1% BSA, mean ±SD, three replicates",0.373 ± 0.0318 µg/mL
same,IC50,"[3]; assay buffer with 5% acetonitrile in PBS containing 0.1% BSA, mean ±SD, three replicates",0.444 ± 0.0118 µg/mL
same,IC50,"[3]; assay buffer with 5% dioxane in PBS containing 0.1% BSA, mean ±SD, three replicates",1.679 ± 0.271 µg/mL
same,IC50,"[3]; assay buffer with 5% methanol in PBS containing 0.1% BSA, mean ±SD, three replicates",0.637 ± 0.0671 µg/mL
same,IC50,"[3]; assay buffer with 10% DMF in PBS containing 0.1% BSA, mean ±SD, three replicates",0.223 ± 0.0118 µg/mL
same,IC50,"[3]; assay buffer with 10% DMSO in PBS containing 0.1% BSA, mean ±SD, three replicates",0.52 ± 0.0661 µg/mL
same,IC50,"[3]; assay buffer with 10% acetonitrile in PBS containing 0.1% BSA, mean ±SD, three replicates",0.325 ± 0.0088 µg/mL
same,IC50,"[3]; assay buffer with 10% dioxane in PBS containing 0.1% BSA, mean ±SD, three replicates",2.509 ± 0.504 µg/mL
same,IC50,"[3]; assay buffer with 10% methanol in PBS containing 0.1% BSA, mean ±SD, three replicates",0.624 ± 0.0145 µg/mL
same,IC50,"[3]; assay buffer with 20% DMF in PBS containing 0.1% BSA, mean ±SD, three replicates",0.345 ± 0.0175 µg/mL
same,IC50,"[3]; assay buffer with 20% DMSO in PBS containing 0.1% BSA, mean ±SD, three replicates",0.423 ± 0.053 µg/mL
same,IC50,"[3]; assay buffer with 20% acetonitrile in PBS containing 0.1% BSA, mean ±SD, three replicates",0.428 ± 0.0112 µg/mL
same,IC50,"[3]; assay buffer with 20% dioxane in PBS containing 0.1% BSA, mean ±SD, three replicates",2.191 ± 0.224 µg/mL
same,IC50,"[3]; assay buffer with 20% methanol in PBS containing 0.1% BSA, mean ±SD, three replicates",0.889 ± 0.0186 µg/mL
same,IC50,"[3]; conjugate coated icELISA standard curve, optimized conditions (DBAP-BSA 0.25 µg/mL, MAb 1:8000)",0.106 µg/mL
same,LOD (IC10),[3]; [7],0.0105 µg/mL
same,dynamic range (IC20–IC80),[3]; [7],0.0252 to 0.445 µg/mL
same,IC50,[4],< 5 µg/mL
same,CR (cross-reactivity),[1]; hapten coated icELISA,100%
same,IC50,[1]; [6],0.0147 ± 0.0028 µg/mL
same,IC50,"[1]; hapten coated icELISA standard curve, optimized conditions (DBAP 1 µg/mL, MAb 1:1000)",0.0146 µg/mL
same,LOD (IC10),[1]; [8],0.000426 µg/mL
same,dynamic range (IC20–IC80),[1]; [8],0.00174 to 0.123 µg/mL
same,limit of detection (LOD),[5]; as stated by Zhang et al,0.02 µg/L
same,concentration causing 50% of the maximal fluorescence quenching,[5]; maximum concentration used did not cause 50% quenching,> 1000 µg/L
"CCCCC(CC)COC(=O)c1ccccc1C(=O)OCC(CC)CCCC (stereo not drawn) [DEHP, di(2-ethylhexyl) phthalate]",inhibition,[1]; hapten coated icELISA,1.12% inhibition at 10 mg/mL
same,antibody recognition,[1]; hapten coated icELISA,absence of recognition
"CCOC(=O)c1ccccc1C(=O)OCC [DEP, diethyl phthalate]",inhibition,[1]; hapten coated icELISA,5.08% inhibition at 10 mg/mL
same,antibody recognition,[1]; hapten coated icELISA,absence of recognition
"COC(=O)c1ccccc1C(=O)OC [DMP, dimethyl phthalate]",inhibition,[1]; hapten coated icELISA,7.98% inhibition at 10 mg/mL
same,antibody recognition,[1]; hapten coated icELISA,absence of recognition
"CCCCCCCCOC(=O)c1ccccc1C(=O)OCCCCCCCC [DOP, di(n-octyl) phthalate]",inhibition,[1]; hapten coated icELISA,1.15% inhibition at 10 mg/mL
same,antibody recognition,[1]; hapten coated icELISA,absence of recognition
